Values joined by “and” are separate entries in the source; they are usually repeats but may differ in a detail not shown here. Identical values can stand only once. Counter-ions that a name gives are not always drawn. Active and inactive are the calls of the source.
Key:
[1] = Luminescence Cell-Based Dose Confirmation HTS to Identify Activators of 5'UTR Stem-Loop Driven Alpha-Synuclein mRNA Translation in H4 Neuroglioblastoma Cells. [Related pubchem assays: 1829 (Project Summary), 1814 (Primary HTS)]; type: functional
[2] = Luminescence Cell-Based Dose Response to Identify Activators of Luciferase Translation or Activity in H4-C Neuroglioblastoma Cells. [Related pubchem assays: 1829 (Project Summary), 1814 (Primary HTS)]; type: functional
[3] = target: T1, Rac GTPase-activating protein 1 (Homo sapiens, UniProt Q9H0H5); test: blockers of MgcRacGAP-driven Rac1 GTP hydrolysis – biochemical, ADP Hunter fluorescence, primary and confirmatory, confirmation (AID 624330); type: functional
T1 sequence (Q9H0H5 whole entry): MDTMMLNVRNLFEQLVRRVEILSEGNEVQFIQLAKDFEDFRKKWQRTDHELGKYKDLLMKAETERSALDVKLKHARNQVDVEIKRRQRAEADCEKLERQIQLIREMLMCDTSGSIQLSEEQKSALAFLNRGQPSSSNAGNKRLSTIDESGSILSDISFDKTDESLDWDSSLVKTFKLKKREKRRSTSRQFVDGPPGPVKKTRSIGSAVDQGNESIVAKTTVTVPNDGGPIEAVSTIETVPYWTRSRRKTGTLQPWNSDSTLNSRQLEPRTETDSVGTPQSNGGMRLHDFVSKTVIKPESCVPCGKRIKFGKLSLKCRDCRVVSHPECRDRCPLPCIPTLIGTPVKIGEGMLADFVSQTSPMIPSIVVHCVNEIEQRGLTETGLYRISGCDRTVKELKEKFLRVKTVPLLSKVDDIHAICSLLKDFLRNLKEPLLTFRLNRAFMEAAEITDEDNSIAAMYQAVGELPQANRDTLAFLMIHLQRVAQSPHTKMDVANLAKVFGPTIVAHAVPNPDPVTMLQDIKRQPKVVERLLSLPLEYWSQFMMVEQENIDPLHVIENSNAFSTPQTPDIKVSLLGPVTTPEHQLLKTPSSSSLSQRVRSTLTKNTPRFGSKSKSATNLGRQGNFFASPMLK

[4] = system: Streptococcus sp. 'group A'; test: Streptococcus pyogenes SK(-)GAS viability under kanamycin – luminescence, BacTiterGlo, confirmation, counter-screen for streptokinase expression inhibitor project, dose response (AID 1900); type: functional, organism-based
Streptokinase A = target: T2, Streptokinase A (Streptococcus pyogenes serotype M1, UniProt P10520); test: viability-normalized secreted streptokinase activity reduction – plasminogen activation absorbance, OD405, dose response (AID 1914); type: functional, Streptococcus pyogenes M1 GAS;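 note: secreted streptokinase activity via plasminogen activation per viability signal from cell pellet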
T2 sequence (P10520 whole entry): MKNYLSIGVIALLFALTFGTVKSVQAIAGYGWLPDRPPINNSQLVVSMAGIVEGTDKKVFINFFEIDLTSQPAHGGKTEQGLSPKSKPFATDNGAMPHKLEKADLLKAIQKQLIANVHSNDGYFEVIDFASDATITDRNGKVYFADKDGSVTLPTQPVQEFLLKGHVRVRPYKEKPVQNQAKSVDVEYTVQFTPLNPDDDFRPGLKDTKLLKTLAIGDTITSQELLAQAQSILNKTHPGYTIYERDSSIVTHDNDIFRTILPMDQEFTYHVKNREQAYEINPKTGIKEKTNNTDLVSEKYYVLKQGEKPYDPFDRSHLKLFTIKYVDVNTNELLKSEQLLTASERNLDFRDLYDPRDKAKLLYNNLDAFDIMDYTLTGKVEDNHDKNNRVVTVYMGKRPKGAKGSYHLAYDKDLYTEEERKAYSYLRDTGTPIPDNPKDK

Streptococcus = test: GAS UMAA2166 growth inhibition – luminescence, BacTiterGlo, counter-screen for streptokinase expression inhibitor project, dose response (AID 1915); type: functional, organism-based;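 note: potency for reduction of bacterial viability or growth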
[5] = target: T3, Zinc finger protein mex-5 (Caenorhabditis elegans, UniProt Q9XUB2); test: potency of MEX-5 RNA-binding blockers – biochemical, C. elegans, fluorescence polarization, dose response (AID 1960)
T3 sequence (Q9XUB2 whole entry): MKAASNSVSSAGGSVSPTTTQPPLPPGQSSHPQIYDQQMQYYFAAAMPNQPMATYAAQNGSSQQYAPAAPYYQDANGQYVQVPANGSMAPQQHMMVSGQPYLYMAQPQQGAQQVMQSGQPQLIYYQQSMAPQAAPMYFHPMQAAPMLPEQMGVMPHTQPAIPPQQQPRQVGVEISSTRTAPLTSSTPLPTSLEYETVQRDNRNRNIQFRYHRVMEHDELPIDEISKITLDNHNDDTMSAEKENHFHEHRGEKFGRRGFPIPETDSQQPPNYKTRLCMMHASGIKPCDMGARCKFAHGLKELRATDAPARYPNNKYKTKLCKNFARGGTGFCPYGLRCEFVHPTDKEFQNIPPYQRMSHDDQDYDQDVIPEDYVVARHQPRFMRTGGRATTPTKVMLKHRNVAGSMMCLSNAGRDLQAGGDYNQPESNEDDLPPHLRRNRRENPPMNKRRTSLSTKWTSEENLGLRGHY

[6] = target: Protein kinase C theta type (Homo sapiens, UniProt Q04759); test: Navigating the Kinome. Panel member name: PRKCQ; type: functional
[7] = target: Dual specificity mitogen-activated protein kinase kinase 1 (Homo sapiens, UniProt Q02750); test: Navigating the Kinome. Panel member name: MAP2K1; type: functional
[8] = target: Tyrosine-protein kinase Lck (Homo sapiens, UniProt P06239); type: functional;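 note: lck was assayed as one member of a kinase panel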
[9] = target: Serine/threonine-protein kinase PAK 1 (Homo sapiens, UniProt Q13153); type: functional
[10] = target: Proto-oncogene tyrosine-protein kinase ROS (Homo sapiens, UniProt P08922); type: functional;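 note: ROS1 tested as one member of a kinome-wide kinase panel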
[11] = target: High affinity nerve growth factor receptor (Homo sapiens, UniProt P04629); type: functional;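 note: NTRK1 tested as one member of a kinome-wide profiling panel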
[12] = target: Non-receptor tyrosine-protein kinase TYK2 (Homo sapiens, UniProt P29597); type: functional
[13] = target: Protein kinase C gamma type (Homo sapiens, UniProt P05129); type: functional
[14] = target: MAP kinase-interacting serine/threonine-protein kinase 2 (Homo sapiens, UniProt Q9HBH9); type: functional
[15] = target: Vascular endothelial growth factor receptor 2 (Homo sapiens, UniProt P35968); type: functional
[16] = target: Serine/threonine-protein kinase pim-2 (Homo sapiens, UniProt Q9P1W9); type: functional;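 note: value comes from a broad kinase panel profiling study in which PIM2 was one of the panel members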
[17] = target: BDNF/NT-3 growth factors receptor (Homo sapiens, UniProt Q16620); type: functional;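 note: NTRK2 measured as one member of a broad kinome-wide kinase profiling panel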
[18] = target: cAMP-dependent protein kinase catalytic subunit alpha (Homo sapiens, UniProt P17612); type: functional
[19] = target: Macrophage colony-stimulating factor 1 receptor (Homo sapiens, UniProt P07333); type: functional;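 note: value comes from the Navigating the Kinome screening panel, CSF1R member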
[20] = target: Inhibitor of nuclear factor kappa-B kinase subunit epsilon (Homo sapiens, UniProt Q14164); test: Navigating the Kinome. Panel member name: IKBKE; type: functional
Chain of Inhibitor of nuclear factor kappa-B kinase subunit epsilon (Q14164 whole entry): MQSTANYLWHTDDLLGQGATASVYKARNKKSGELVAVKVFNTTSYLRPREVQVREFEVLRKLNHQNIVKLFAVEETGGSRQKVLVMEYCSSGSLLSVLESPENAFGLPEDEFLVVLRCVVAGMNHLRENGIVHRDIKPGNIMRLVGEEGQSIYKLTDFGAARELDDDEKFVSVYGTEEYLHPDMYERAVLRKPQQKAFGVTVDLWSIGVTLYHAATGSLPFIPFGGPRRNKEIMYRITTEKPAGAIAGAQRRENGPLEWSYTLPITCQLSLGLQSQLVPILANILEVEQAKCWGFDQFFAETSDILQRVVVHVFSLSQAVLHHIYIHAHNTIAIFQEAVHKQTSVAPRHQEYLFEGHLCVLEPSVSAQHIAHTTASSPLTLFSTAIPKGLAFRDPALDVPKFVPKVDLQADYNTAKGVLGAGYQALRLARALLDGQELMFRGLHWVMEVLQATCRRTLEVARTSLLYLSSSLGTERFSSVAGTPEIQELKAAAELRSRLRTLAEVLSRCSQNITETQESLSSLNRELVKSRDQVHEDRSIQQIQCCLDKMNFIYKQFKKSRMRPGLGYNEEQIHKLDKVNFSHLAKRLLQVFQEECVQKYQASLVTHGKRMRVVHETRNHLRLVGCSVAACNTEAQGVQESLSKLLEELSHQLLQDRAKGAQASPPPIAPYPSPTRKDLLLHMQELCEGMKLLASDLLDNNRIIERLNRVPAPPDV

Chain of BDNF/NT-3 growth factors receptor (Q16620 whole entry): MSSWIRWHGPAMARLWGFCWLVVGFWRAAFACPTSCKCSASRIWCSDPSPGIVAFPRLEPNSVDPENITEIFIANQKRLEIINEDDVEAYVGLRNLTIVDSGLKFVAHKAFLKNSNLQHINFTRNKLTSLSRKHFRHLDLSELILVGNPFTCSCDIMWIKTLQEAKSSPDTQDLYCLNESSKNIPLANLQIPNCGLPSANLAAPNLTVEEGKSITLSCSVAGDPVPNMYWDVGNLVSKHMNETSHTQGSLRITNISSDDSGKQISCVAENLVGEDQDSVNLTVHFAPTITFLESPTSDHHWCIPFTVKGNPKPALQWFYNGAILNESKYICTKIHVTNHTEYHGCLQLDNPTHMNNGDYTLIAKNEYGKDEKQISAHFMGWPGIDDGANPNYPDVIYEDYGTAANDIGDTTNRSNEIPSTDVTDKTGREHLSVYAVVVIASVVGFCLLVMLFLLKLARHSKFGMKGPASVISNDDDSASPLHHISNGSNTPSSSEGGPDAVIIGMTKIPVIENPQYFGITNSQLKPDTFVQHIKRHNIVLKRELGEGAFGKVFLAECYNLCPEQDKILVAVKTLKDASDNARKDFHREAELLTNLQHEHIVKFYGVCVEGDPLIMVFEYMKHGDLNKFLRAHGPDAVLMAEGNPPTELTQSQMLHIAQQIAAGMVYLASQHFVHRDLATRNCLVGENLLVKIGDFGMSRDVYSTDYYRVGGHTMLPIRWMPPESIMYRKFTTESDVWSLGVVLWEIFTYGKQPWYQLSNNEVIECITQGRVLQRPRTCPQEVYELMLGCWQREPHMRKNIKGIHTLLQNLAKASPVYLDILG
Chain of Non-receptor tyrosine-protein kinase TYK2 (P29597 whole entry): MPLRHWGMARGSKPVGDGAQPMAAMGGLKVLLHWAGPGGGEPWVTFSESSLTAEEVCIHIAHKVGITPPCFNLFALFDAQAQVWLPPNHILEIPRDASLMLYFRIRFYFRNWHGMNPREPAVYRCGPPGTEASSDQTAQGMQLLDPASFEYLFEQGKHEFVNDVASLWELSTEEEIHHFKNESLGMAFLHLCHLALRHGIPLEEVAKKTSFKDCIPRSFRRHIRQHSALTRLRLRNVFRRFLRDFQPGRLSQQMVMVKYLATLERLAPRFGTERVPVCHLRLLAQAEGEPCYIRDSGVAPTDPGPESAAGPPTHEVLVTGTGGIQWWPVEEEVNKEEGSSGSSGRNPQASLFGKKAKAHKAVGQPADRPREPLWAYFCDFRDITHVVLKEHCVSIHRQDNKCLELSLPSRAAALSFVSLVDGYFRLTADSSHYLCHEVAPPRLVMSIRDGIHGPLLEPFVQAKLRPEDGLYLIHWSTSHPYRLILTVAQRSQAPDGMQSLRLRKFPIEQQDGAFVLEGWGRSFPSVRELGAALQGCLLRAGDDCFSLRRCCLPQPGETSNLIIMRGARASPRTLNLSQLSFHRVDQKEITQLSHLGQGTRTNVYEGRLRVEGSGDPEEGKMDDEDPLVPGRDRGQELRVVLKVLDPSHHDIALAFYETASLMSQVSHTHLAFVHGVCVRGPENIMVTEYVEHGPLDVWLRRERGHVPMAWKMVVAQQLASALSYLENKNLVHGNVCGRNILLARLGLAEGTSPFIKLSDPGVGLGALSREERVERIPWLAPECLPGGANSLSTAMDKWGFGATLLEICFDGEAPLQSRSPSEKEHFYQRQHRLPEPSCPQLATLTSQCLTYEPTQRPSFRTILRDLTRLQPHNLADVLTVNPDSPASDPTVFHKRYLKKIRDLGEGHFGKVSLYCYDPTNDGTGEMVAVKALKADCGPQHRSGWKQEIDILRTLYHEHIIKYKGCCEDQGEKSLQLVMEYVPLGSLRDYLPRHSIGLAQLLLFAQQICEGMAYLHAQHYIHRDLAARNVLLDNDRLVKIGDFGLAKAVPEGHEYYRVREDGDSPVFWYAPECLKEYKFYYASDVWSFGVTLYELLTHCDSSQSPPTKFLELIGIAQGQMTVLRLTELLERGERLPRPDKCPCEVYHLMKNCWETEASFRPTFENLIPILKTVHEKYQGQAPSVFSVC
Chain of Dual specificity mitogen-activated protein kinase kinase 1 (Q02750 whole entry): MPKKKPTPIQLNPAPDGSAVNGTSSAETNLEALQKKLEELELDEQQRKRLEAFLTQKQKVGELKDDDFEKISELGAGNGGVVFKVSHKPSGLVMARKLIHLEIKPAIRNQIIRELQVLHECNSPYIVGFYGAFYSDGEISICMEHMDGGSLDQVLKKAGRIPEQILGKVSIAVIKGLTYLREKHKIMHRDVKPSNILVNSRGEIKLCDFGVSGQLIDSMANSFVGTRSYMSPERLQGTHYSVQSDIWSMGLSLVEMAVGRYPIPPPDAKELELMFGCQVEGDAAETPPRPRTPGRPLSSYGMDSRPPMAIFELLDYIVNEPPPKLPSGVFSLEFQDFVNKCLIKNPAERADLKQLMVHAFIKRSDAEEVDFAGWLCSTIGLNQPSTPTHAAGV
Chain of Tyrosine-protein kinase Lck (P06239 whole entry): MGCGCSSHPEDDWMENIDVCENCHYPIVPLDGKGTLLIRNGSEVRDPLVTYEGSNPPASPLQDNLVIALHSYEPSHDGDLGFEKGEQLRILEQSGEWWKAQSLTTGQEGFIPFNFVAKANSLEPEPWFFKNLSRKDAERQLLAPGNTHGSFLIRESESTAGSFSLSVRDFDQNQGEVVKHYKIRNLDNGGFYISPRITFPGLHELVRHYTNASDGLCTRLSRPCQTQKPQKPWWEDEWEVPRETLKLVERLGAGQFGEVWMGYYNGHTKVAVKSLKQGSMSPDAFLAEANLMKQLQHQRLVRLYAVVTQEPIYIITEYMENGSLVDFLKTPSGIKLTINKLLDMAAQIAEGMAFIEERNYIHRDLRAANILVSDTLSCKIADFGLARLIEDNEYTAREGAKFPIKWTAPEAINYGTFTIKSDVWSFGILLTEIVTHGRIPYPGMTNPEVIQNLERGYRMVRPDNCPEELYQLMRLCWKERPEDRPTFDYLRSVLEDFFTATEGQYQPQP
Chain of Serine/threonine-protein kinase PAK 1 (Q13153 whole entry): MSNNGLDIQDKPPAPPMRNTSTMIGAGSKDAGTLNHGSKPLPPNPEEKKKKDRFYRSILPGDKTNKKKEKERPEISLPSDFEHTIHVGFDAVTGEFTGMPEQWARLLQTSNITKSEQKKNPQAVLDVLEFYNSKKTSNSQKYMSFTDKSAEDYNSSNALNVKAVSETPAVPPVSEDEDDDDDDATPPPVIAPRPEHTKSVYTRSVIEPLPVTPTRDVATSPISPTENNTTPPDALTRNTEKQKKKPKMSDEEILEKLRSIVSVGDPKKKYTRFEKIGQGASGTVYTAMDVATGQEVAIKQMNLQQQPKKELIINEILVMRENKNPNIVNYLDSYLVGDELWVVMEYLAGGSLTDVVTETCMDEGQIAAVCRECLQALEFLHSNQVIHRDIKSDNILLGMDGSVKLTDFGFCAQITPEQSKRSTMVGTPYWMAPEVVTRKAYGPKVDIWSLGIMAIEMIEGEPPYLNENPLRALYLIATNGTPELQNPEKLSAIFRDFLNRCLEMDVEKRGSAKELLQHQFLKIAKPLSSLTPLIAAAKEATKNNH

With `CCN1/C(=C\c2ccc3ccccc3[n+]2CC)Sc2cc(C)ccc21` the EC50 [1] was 15.7 µM (active), the EC50 [2] was > 12 µM (not active) and the IC50 [3] was 81.3 µM (active).
For `CCCCCCCCCCOC(=O)C[n+]1c(COc2ccc(C)cc2)n(C)c2ccccc21`, the EC50 [4] was 6.2 µM (active), the EC50 (Streptokinase A) was > 150 µM (not active) and the EC50 (Streptococcus) was 7.92 µM (active).
For `CC[C@@H](CO)NC(=O)[C@@H]1C=C2c3cccc4c3c(cn4C)C[C@H]2N(C)C1` [METHYSERGIDE MALEATE], the EC50 [5] was 12.3 µM (active) and 20 µM (inconclusive).
In the case of `CN1CCN(c2nc(C3=C(c4c[nH]c5ccccc45)C(=O)NC3=O)c3ccccc3n2)CC1` [SOTRASTAURIN], the Ki [6] is reported as 0.000631 µM (active), the Ki [7] is reported as 3.16 µM (active) and the Ki [8] is reported as > 3.98 µM (inactive). The Ki [9] was > 10 µM (inactive), the Ki [10] was > 2 µM (inactive) and the Ki [11] was > 2.51 µM (inactive). The Ki [12] was > 2 µM (inactive), the Ki [13] was 0.0126 µM (active) and the Ki [14] was > 10 µM (inactive). The Ki [15] was 0.398 µM (active), the Ki [16] was 0.00158 µM (active) and the Ki [17] was > 3.98 µM (inactive). For the same compound, the Ki [18] was > 1.26 µM (inactive), the Ki [19] was > 2.51 µM (inactive) and the Ki [20] was > 3.16 µM (inactive).

Source: ChEMBL document CHEMBL1201862, “PubChem BioAssay data set” (2004)
